This note sets out measurements from paper PMC6366420, “Design and synthesis of 4-piperazinyl quinoline derived urea/thioureas for anti-breast cancer activity by a hybrid pharmacophore approach” (Journal of Enzyme Inhibition and Medicinal Chemistry, 2019).

One data set has as its system 184B5. Description: SRB antiproliferative assay, 184B5 non-cancer breast cells. Format: cell-based, human. The note with it: Homo sapiens; SRB, 48 h incubation, 184B5 non-cancer immortalised breast cells; read-out: GI50 184B5. As to the method:
(§1) The human breast cancer cell lines MDA-MB468, MDA-MB231 and MCF-7 were purchased from ATCC and maintained in RPMI 1640 medium supplemented with 10% fetal bovine serum (Hyclone, Logan UT) and 2 mM L-glutamine. MCF10A and 184B5 immortalised breast cells were purchased from ATCC and maintained in mammary epithelial basal medium supplemented with an MEGM mammary epithelial singlequot kit (Cambrex). Cells were grown at 37 °C with 5% CO2, 95% air under the humidified conditions. Cell line authentication was carried out by Genetica DNA Laboratories (Burlington, NC) using a short tandem repeat profiling method (March 2015; July 2015; September 2016).
(§2) Cell cytotoxic effects were determined by a SRB-based protocol[2]^,[25].
(§3) The newly synthesised 4-piperazinylquinoline compounds (5–30) were evaluated for their antiproliferative effects using three breast cancer cell lines, for which the compounds were diluted to achieve seven different concentrations ranging from […]. Followed by 48 h incubation with the compound, cells were treated with sulforhodamine B (SRB) to measure their growth/viability (% of the untreated control) by spectrophotometer. The total cellular macromolecules levels known to accurately reflect by UV reading of SRB staining. […] The reference compounds CQ and cisplatin were included for the comparison.
(§4) We further assessed their antiproliferative effects on two non-cancer immortalised cell lines (184B5 and MCF10A). […] The antiproliferative effects of compound 23 on cancer cells are thus 7-fold (MDA-MB468 vs MCF10A) to 11-fold (MDA-MB231 vs 184B5) higher than matching non-cancer breast cells, which may indicate that compound 23 could potentially be safer than other compounds. Therefore, we examined it further to gain insights into its molecular mechanism of action.

Another data set deals with MDA-MB468. Description: SRB antiproliferative assay, MDA-MB468. Format: cell-based, human. The note with it: Homo sapiens, MDA-MB-468, 48 h, SRB, 48 h incubation, MDA-MB468 breast cancer cells; read-out: GI50 MDA-MB468. As for the experimental part:
as §1, §2, §3

In another data set the test system is MDA-MB231. Description: SRB antiproliferative assay, MDA-MB231. The conditions noted are these: Homo sapiens, MDA-MB-231, 48 h, SRB, 48 h incubation, MDA-MB231 triple-negative breast cancer cells; read-out: GI50 MDA-MB231. Format: cell-based, human. As to the method:
as §1, §2, §3
Background: Sulforhodamine B stains cellular protein and so reports cell mass.

The next data set concerns MCF7. Description: SRB antiproliferative assay, MCF7. The note with it: Homo sapiens; SRB, 48 h incubation, MCF7 breast cancer cells; read-out: GI50 MCF7. It is filed as cell-based, human. As to the method:
as §1, §2, §3

Data set [1] deals with breast cancer and non-cancer breast cell lines. Description: SRB antiproliferative comparison of breast cancer and non-cancer breast cell lines. Format: cell-based, human. The note with it: three breast cancer lines vs 184B5 and MCF10A. As to the method:
as §1, §2, §3, §4

The subject of the next data set is MCF10A. The experiment in a line: SRB antiproliferative assay, MCF10A non-cancer breast cells. Format: cell-based, human. The conditions noted are these: Homo sapiens, MCF-10A; SRB, 48 h incubation, MCF10A non-cancer immortalised breast cells; read-out: GI50 MCF10A. As to the method: as §1, §2, §3, §4

As a reminder, the GI50 is the concentration that inhibits growth by half. One may read the melting point as the temperature of the solid-liquid transition. The molecule `S=C(Nc1ccccc1)N1CCN(c2ccnc3cc(Cl)ccc23)CC1` [Compound 17, 4-(7-Chloro-quinolin-4-yl)-piperazine-1-carbothioic acid phenylamide] returned a melting point of 171 to 172 °C. Further, the concentration for 50% growth inhibition (GI50) in the data set on 184B5 stood at 19.2 ± 1.6 µM. The 50% growth inhibitory concentration (GI50) in the data set with MDA-MB468 was determined as 11.8 ± 0.6 µM. Further, the concentration for 50% growth inhibition (GI50) with MDA-MB231 amounted to 4.8 ± 0.2 µM. For the same molecule, the GI50 in the data set with MCF7 was found to be 4.9 ± 0.3 µM. Also, the “antigrowth effect against cancer versus non-cancer cells (in words)” value in data set [1] is recorded as “much stronger activities against cancer than non-cancer cells”. Also, the concentration for 50% growth inhibition (GI50) with MCF10A came out at 13.9 ± 1.3 µM.

As to `Cc1cccc(C)c1NC(=S)N1CCN(c2ccnc3cc(Cl)ccc23)CC1` [Compound 18, 4-(7-Chloro-quinolin-4-yl)-piperazine-1-carbothioic acid (2,6-dimethyl-phenyl)-amide], the melting point fell in the range of 138 to 139 °C. In addition, the GI50 in the data set with 184B5 was found to be 16.7 ± 1 µM. Moreover, in the data set with MDA-MB468, the 50% growth inhibitory concentration (GI50) was found to be 7.8 ± 0.8 µM. In the data set on MDA-MB231, the GI50 amounted to 9.6 ± 0.5 µM. Also, in the data set with MCF7, the GI50 amounted to 7.3 ± 0.5 µM. Moreover, the “antigrowth effect against cancer versus non-cancer cells (in words)” value in data set [1] was “much stronger activities against cancer than non-cancer cells”. In addition, the concentration for 50% growth inhibition (GI50) in the data set on MCF10A is 52.3 ± 2.9 µM.

For the molecule `FC(F)(F)c1ccc(NC(=S)N2CCN(c3ccnc4cc(Cl)ccc34)CC2)cc1` [Compound 19, 4-(7-Chloro-quinolin-4-yl)-piperazine-1-carbothioic acid (4-trifluoromethyl-phenyl)-amide], the melting point was in the range of 112 to 113 °C. Further, the GI50 with 184B5 turned out to be 3.7 ± 0.1 µM. In the data set on MDA-MB468, the GI50 was found to be 7.8 ± 0.8 µM. Also, the 50% growth inhibitory concentration (GI50) with MDA-MB231 turned out to be 14.9 ± 1.1 µM. For the same molecule, in the data set with MCF7, the GI50 was determined as 4.9 ± 0.4 µM. Besides, the “antigrowth effect against cancer versus non-cancer cells (in words)” value in data set [1] is “higher activity against non-cancer cells than cancer cells”. Moreover, the concentration for 50% growth inhibition (GI50) with MCF10A was determined as 3.1 ± 0.1 µM.

Turning to `S=C(Nc1ccc(Cl)cc1)N1CCN(c2ccnc3cc(Cl)ccc23)CC1` [Compound 20, 4-(7-Chloro-quinolin-4-yl)-piperazine-1-carbothioic acid (4-chloro-phenyl)-amide], the melting point fell in the range of 145 to 146 °C. For the same molecule, the GI50 in the data set with 184B5 stood at 14.4 ± 0.6 µM. For the same molecule, in the data set on MDA-MB468, the 50% growth inhibitory concentration (GI50) amounted to 33.1 ± 1.5 µM. Also, the GI50 with MDA-MB231 worked out at 22.6 ± 1.4 µM. For the same molecule, the GI50 with MCF7 was found to be 20.4 ± 0.9 µM. Moreover, in data set [1], the “antigrowth effect against cancer versus non-cancer cells (in words)” value is on record as “higher activity against non-cancer cells than cancer cells”. The 50% growth inhibitory concentration (GI50) with MCF10A was found to be 8.8 ± 0.7 µM.

In turn, `S=C(Nc1c(Cl)cc(Cl)cc1Cl)N1CCN(c2ccnc3cc(Cl)ccc23)CC1` [Compound 21, 4-(7-Chloro-quinolin-4-yl)-piperazine-1-carbothioic acid (2,4,6-trichloro-phenyl)-amide] returned a melting point of 132 to 133 °C. In addition, the GI50 in the data set on 184B5 amounted to 4.7 ± 0.3 µM. In the data set on MDA-MB468, the GI50 came out at 5.1 ± 0.2 µM. Besides, in the data set with MDA-MB231, the GI50 turned out to be 7.7 ± 0.5 µM. In addition, the GI50 in the data set with MCF7 was 4 ± 0.3 µM. Besides, in data set [1], the “antigrowth effect against cancer versus non-cancer cells (in words)” value is “comparable against cancer and non-cancer cells”. For the same molecule, in the data set with MCF10A, the GI50 is 6.8 ± 0.6 µM.

`S=C(Nc1cccc2ccccc12)N1CCN(c2ccnc3cc(Cl)ccc23)CC1` [Compound 22, 4-(7-Chloro-quinolin-4-yl)-piperazine-1-carbothioic acid naphthalen-1-ylamide] yielded a melting point of 107 to 108 °C. The GI50 in the data set with 184B5 turned out to be 17.8 ± 0.6 µM. The GI50 in the data set with MDA-MB468 stood at 10 ± 0.9 µM. Also, in the data set on MDA-MB231, the GI50 was 19.8 ± 1.1 µM. Moreover, in the data set on MCF7, the 50% growth inhibitory concentration (GI50) turned out to be 30.1 ± 1.2 µM. Besides, the “antigrowth effect against cancer versus non-cancer cells (in words)” value in data set [1] was “comparable against cancer and non-cancer cells”. Besides, the concentration for 50% growth inhibition (GI50) with MCF10A was found to be 13.3 ± 1 µM.

`FC(F)(F)c1ccc2c(N3CCN(C(=S)Nc4ccccc4)CC3)ccnc2c1` [Compound 24, 4-(7-Trifluoromethyl-quinolin-4-yl)-piperazine-1-carbothioic acid phenylamide] showed a melting point of 187 to 188 °C. For the same molecule, the 50% growth inhibitory concentration (GI50) in the data set with 184B5 amounted to 24.4 ± 2 µM. For the same molecule, in the data set with MDA-MB468, the GI50 was determined as 14.1 ± 0.9 µM. Moreover, in the data set with MDA-MB231, the GI50 was 13.8 ± 0.8 µM. In addition, the concentration for 50% growth inhibition (GI50) in the data set on MCF7 is 7.5 ± 0.6 µM. For the same molecule, the “antigrowth effect against cancer versus non-cancer cells (in words)” value in data set [1] is “much stronger activities against cancer than non-cancer cells”. The concentration for 50% growth inhibition (GI50) with MCF10A was 34.2 ± 1.3 µM.
